Results from patent publication US11590155B2, “Substituted nucleosides, nucleotides and analogs thereof” (priority 2014, dated 2023).
pEC50: −log10 of the molar value.

System: Ebola
Assay: microbe, parasite or virus in culture
Assay type: cell-based
Settings: Zaire ebolavirus, HeLa, read-out: EC50 against Ebola

`[N-]=[N+]=NC[C@]1(CO)O[C@@H](n2ccc(N)nc2=O)[C@H](F)[C@@H]1O` [Compound 106] gave a pEC50 of over 5.70.
With `Nc1ccn([C@@H]2O[C@@](CO)(CCl)[C@@H](O)[C@H]2F)c(=O)n1` [compound 315] the pEC50 was over 4.60.
`[N-]=[N+]=N[C@]1(CO)O[C@@H](n2ccc(N)nc2=O)[C@H](F)[C@@H]1O` [compound 332] showed a pEC50 of over 5.70.
